The target of this assay is T1, human 5HT1A-serotonergic receptor (Homo sapiens, UniProt P08908).
T1 construct: expressed in transfected cells; host or cells: HeLa (human), stably transfected; membranes
T1 sequence (P08908 1-422): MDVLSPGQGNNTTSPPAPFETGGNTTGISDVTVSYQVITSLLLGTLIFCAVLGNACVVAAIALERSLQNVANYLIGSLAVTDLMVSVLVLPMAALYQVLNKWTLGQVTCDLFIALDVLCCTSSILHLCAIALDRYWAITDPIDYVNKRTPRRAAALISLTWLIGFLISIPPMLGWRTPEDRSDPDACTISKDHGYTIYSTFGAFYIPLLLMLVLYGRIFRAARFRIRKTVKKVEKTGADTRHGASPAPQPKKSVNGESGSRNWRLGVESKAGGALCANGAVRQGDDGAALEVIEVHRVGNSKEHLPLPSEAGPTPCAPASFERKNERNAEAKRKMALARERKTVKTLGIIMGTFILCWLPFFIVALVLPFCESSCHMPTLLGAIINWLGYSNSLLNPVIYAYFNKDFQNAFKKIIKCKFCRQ
Briefly: Radioligand binding to recombinant 5-HT1A receptor ([3H]8-OH-DPAT, HeLa cell membranes). The following applies: 1 nM [3H]8-OH-DPAT; Ki from IC50 by the Cheng equation; read-out: Ki (nM), binding affinity for 5HT1A receptor. The procedure: Genomic clone G-21 encoding the human 5HT1A-serotonergic receptor was stably transfected in a human cell line (HeLa). HeLa cells were grown as monolayers in Dulbecco's modified Eagle medium (DMEM), containing 10% fetal bovine serum and gentamycin (100 μg/ml) at 37° C. in a humidified atmosphere of 5% CO2 and air. The cells were detached from the growth flask at 95% confluence by a cell scraper and were lysed in cold 5 mM Tris and 5 mM EDTA buffer (pH 7.4). The homogenates were centrifuged at 40000×g×20 minutes and the pellets were resuspended in a small volume of cold 5 mM Tris and 5 mM EDTA buffer (pH 7.4) and immediately frozen and stored at −70° C. until use. On the day of experiment, the cell membranes were resuspended in incubation buffer: 50 mM Tris (pH 7.4), 2.5 mM MgCl2, 10 μM pargyline (Fargin et al., Nature 335, 358-360, 1988). The membranes were incubated in a final volume of 0.32 ml for 30 minutes at 30° C. with 1 nM [^3H]8-OH-DPAT, in the absence or presence of the test compounds. Non-specific binding was determined in the presence of 10 μM 5-HT. Incubation was stopped by addition of cold Tris buffer and rapid filtration through UniFilter GF/C plate.
The affinity of the tested compounds was evaluated as inhibition of specific binding of the radioligand to 5-HT1A receptor (IC50) by using the non-linear curve-fitting program Allfit (De Lean et al., Am. J. Physiol. 235, E97-E102 (1978)). The IC50 value was converted to an affinity constant (Ki) by the equation of Cheng et al., Biochem. Pharmacol. 22, 3099-3108 (1973).

Broadly, the Ki is a measure of affinity in units of concentration, obtained from inhibition or displacement.

On to `CNC(=S)N[C@H](C1CCCCC1)[C@@H](CCN1CCN(c2ccccc2OC)CC1)c1ccccc1F` (racemic) [Example 23, 1-{(RS,SR)-1-Cyclohexyl-2-(2-fluorophenyl)-4-[4-(2-methoxyphenyl)-piperazin-1-yl]butyl}-3-methylthiourea], for which the Ki stood at 0.58 nM.

`CNC(C1CCCCC1)C(CCN1CCN(Cc2cc(OC)ccc2Br)CC1)c1ccccc1F` (centres unmarked) [Example 44, 4-[4-(2-Bromo-5-methoxybenzyl)piperazin-1-yl]-1-cyclohexyl-2-(2-fluorophenyl)butylmethylamine]: the Ki was 0.4 nM.

As to `COc1ccc(Br)c(CN2CCN(CCC(c3ccccc3F)C(N)C3CCCCC3)CC2)c1` (centres unmarked) [Example 43, 4-[4-(2-Bromo-5-methoxybenzyl)piperazin-1-yl]-1-cyclohexyl-2-(2-fluorophenyl)butylamine], the Ki is 0.3 nM.

With `O=CNC(C1CCCCC1)C(CCN1CCN(c2cccc3[nH]ccc23)CC1)c1ccccc1F` (centres unmarked) [Example 52, N-{1-Cyclohexyl-2-(2-fluorophenyl)-4-[4-(1H-indol-4-yl)piperazin-1-yl]butyl}formamide], the Ki was found to be 2.3 nM.

For `CON=C(C)C(CCN1CCN(c2ccccc2OCC(F)(F)F)CC1)c1ccccc1F` (centres unmarked) [Example 32, E(Z)-3-(2-Fluorophenyl)-5-{4-[2-(2,2,2-trifluoroethoxy)phenyl]-piperazin-1-yl}pentan-2-one O-methyloxime], the Ki was determined as 2.24 nM.

In the case of `CNC(C1CCCCC1)C(CCN1CCN(c2ccccc2OC)CC1)c1ccccc1F` (centres unmarked) [Example 10a], the Ki came to 0.49 nM.

Turning to `COc1ccccc1N1CCN(CC[C@@H](c2ccccc2F)[C@H](N)C2CCCCC2)CC1` (single isomer, unassigned) [Example 5aA, (1R,2S) or (1S,2R)-1-Cyclohexyl-2-(2-fluorophenyl)-4-[4-(2-methoxyphenyl)piperazin-1-yl]butylamine], the Ki stood at 0.6 nM.

As to `CNC(C1CCCCC1)C(CCN1CCN(c2ccccc2OC)CC1)c1ccccc1F` (centres unmarked) [Example 10b], the Ki turned out to be 1.41 nM.

With `COc1ccccc1N1CCN(CC[C@@H](c2ccccc2F)[C@H](NCc2ccco2)C2CCCCC2)CC1` (racemic) [Example 14, {(RS,SR)-1-Cyclohexyl-2-(2-fluorophenyl)-4-[4-(2-methoxyphenyl)-piperazin-1-yl]butyl}furan-2-ylmethylamine], the Ki was determined as 0.42 nM.

On to `CC(=NO)C(CCN1CCN(c2ccccc2OCC(F)(F)F)CC1)c1ccccc1F` (centres unmarked) [Example 31, E(Z)-3-(2-Fluorophenyl)-5-{4-[2-(2,2,2-trifluoroethoxy)phenyl]-piperazin-1-yl}pentan-2-one oxime], for which the Ki stood at 6.03 nM.

Regarding `CC(=NO)C(CCN1CCN(c2cccc3c2OCCO3)CC1)c1ccccc1F` (centres unmarked) [Example 27, E(Z)-5-[4-(2,3-Dihydrobenzo[1,4]dioxin-5-yl)piperazin-1-yl]-3-(2-fluorophenyl)pentan-2-one oxime], the Ki is 1.77 nM.

Consider `COc1ccccc1N1CCN(CC[C@@H](c2ccccc2F)[C@H](NC(N)=O)C2CCCCC2)CC1` (racemic) [Example 18, {(RS,SR)-1-Cyclohexyl-2-(2-fluorophenyl)-4-[4-(2-methoxyphenyl)-piperazin-1-yl]butyl}urea], for which the Ki was 1.84 nM.

Consider `COc1ccc(Br)c(CN2CCN(CCC(c3ccccc3F)C(NC=O)C3CCCCC3)CC2)c1` (centres unmarked) [Example 42, N-[4-[4-(2-Bromo-5-methoxybenzyl)piperazin-1-yl]-1-cyclohexyl-2-(2-fluorophenyl)butyl]formamide], for which the Ki stood at 0.5 nM.

For the compound `COc1ccccc1N1CCN(CCC(c2ccccc2F)C(C2CCCCC2)N(Cc2ccco2)Cc2ccco2)CC1` (centres unmarked) [Example 15], the Ki stood at 7.28 nM.

`CON=C(C1CCCCC1)C(CCN1CCN(c2ccccc2OC)CC1)c1ccccc1F` (centres unmarked) [Example 2, 1-Cyclohexyl-2-(2-fluorophenyl)-4-[4-(2-methoxyphenyl)-piperazin-1-yl]butan-1-one O-methyloxime]: the Ki came out at 1.9 nM.

As for `COc1ccccc1N1CCN(CC[C@H](c2ccccc2F)[C@H](N)C2CCCCC2)CC1` (racemic) [Example 5b, (RS,RS)-1-Cyclohexyl-2-(2-fluorophenyl)-4-[4-(2-methoxyphenyl)-piperazin-1-yl]butylamine], the Ki worked out at 0.77 nM.

`COc1ccccc1N1CCN(CC[C@@H](c2ccccc2F)[C@H](N)C2CCCCC2)CC1` (racemic) [Example 5a, (RS,SR)-1-Cyclohexyl-2-(2-fluorophenyl)-4-[4-(2-methoxyphenyl)-piperazin-1-yl]butylamine]: the Ki stood at 0.48 nM.

On to `COc1ccc(Br)c(CN2CCN(CCC(c3ccccc3F)C(NC(C)=O)C3CCCCC3)CC2)c1` (centres unmarked) [Example 45, N-[4-[4-(2-Bromo-5-methoxybenzyl)piperazin-1-yl]-1-cyclohexyl-2-(2-fluoro-phenyl)butyl]acetamide], for which the Ki came out at 1.1 nM.

With `COc1ccccc1N1CCN(CCC(C(=NOC(C)=O)C2CCCCC2)c2ccccc2F)CC1` (centres unmarked) [Example 3, 1-Cyclohexyl-2-(2-fluorophenyl)-4-[4-(2-methoxyphenyl)-piperazin-1-yl]butan-1-one O-acetyl oxime], the Ki was found to be 0.87 nM.

Consider `CNC(=O)N[C@H](C1CCCCC1)[C@@H](CCN1CCN(c2ccccc2OC)CC1)c1ccccc1F` (racemic) [Example 19, 1-{(RS,SR)-1-Cyclohexyl-2-(2-fluorophenyl)-4-[4-(2-methoxyphenyl)-piperazin-1-yl]butyl}-3-methylurea], for which the inhibitory constant (Ki) stood at 2.09 nM.

For `NC(C1CCCCC1)C(CCN1CCN(c2cccc3[nH]cnc23)CC1)c1ccccc1F` (centres unmarked) [Example 48, 4-[4-(1H-Benzimidazol-4-yl)piperazin-1-yl]-1-cyclohexyl-2-(2-fluorophenyl)butylamine], the Ki amounted to 0.3 nM.

For the compound `O=CNC(C1CCCCC1)C(CCN1CCN(c2cccc3[nH]cnc23)CC1)c1ccccc1F` (centres unmarked) [Example 47, N-[4-[4-(1H-Benzimidazol-4-yl)piperazin-1-yl]-1-cyclohexyl-2-(2-fluoro-phenyl)butyl]formamide], the Ki came to 0.8 nM.

With `COc1ccccc1N1CCN(CCC(c2ccccc2F)C(NC(=O)N2CCOCC2)C2CCCCC2)CC1` (stereo not drawn) [Example 20, 1-{(RS,SR)-1-Cyclohexyl-2-(2-fluorophenyl)-4-[4-(2-methoxyphenyl)-piperazin-1-yl]butyl}morpholine-4-carboxamide], the inhibitory constant (Ki) is 2.9 nM.

Regarding `CON=C(C)C(CCN1CCN(c2cccc3c2OCCO3)CC1)c1ccccc1F` (mixture of isomers) [Example 28, 5-[4-(2,3-Dihydrobenzo[1,4]dioxin-5-yl)piperazin-1-yl]-3-(2-fluorophenyl)-pentan-2-one O-methyloxime], the Ki amounted to 1.33 nM.

Consider `N[C@H](C1CCCCC1)[C@@H](CCN1CCN(c2cccc3c2OCCO3)CC1)c1ccccc1F` (racemic) [Example 38, (RS,SR)-1-Cyclohexyl-4-[4-(2,3-dihydrobenzo[1,4]dioxin-5-yl)-piperazin-1-yl]-2-(2-fluorophenyl)butylamine], for which the Ki was 0.8 nM.

Take `COc1ccccc1N1CCN(CC[C@@H](c2ccccc2F)[C@@H](C2CCCCC2)N(C)C(=O)N(C)C)CC1` (racemic) [Example 22, 1-{(RS,SR)-1-Cyclohexyl-2-(2-fluorophenyl)-4-[4-(2-methoxyphenyl)-piperazin-1-yl]butyl}-1,3,3-trimethylurea]: the Ki is 1.24 nM.
